Experimental data as given in patent US20250161243A1, “MEF2 TRANSCRIPTIONAL ACTIVATORS TO TREAT NEUROLOGIC CONDITIONS” (The Scripps Research Institute, priority 2022, published 2025).
“Also recorded” adds a separate entry of the source.

What was measured:
[1] = system: MEF2 transcriptional activity; assay: MEF2 transcriptional activity screen (Luciferase-MEF2 reporter in human neural progenitor cells); assay type: cell-based
[2] = system: MEF2 transcriptional activity; assay: Confirmatory screen and Renilla counter-screen of MEF2 reporter activity; assay type: cell-based, human; settings: n=3
From the text: FIG. 4. Dose-response for hits in the Renilla counterscreen. Dose response plots for AR-42, that had high EC50 and >3-fold increase in MEF2 activity in the primary screen. (n=3).
(§1) In an embodiment, a compound for use in a method as described herein is AR-42 (Table 1).

[3] = system: MEF2C haploinsufficiency syndrome (MCHS) patient hiPSC-derived cerebrocortical neurons; assay: Calcium events (fluo-4AM) in MCHS patient hiPSC-derived cerebrocortical neurons; assay type: cell-based, human; settings: MCHS neurons against isogenic WT control
From the text: FIGS. 6A and 6B. AR-42 decreases hyperelectrical activity in MEF2C haploinsufficiency syndrome (MCHS) patient hiPSC-derived cerebrocortical neurons. (FIG. 5A) Representative traces of calcium events using fluo-4AM calcium-sensitive dye in hiPSC-derived neurons. […] (FIG. 5B) Quantification of calcium event frequency. Data represent mean±SEM. Sample size was 5 neurons imaged per coverslip in 3 coverslips. * P<0.05 by one-way ANOVA and Tukey post-hoc test.
as §1

[4] = system: MEF2C haploinsufficient (MHCS) patient hiPSC-derived cerebrocortical neurons; assay: MAP2 protein expression (immunoblot) in MCHS patient hiPSC-derived cerebrocortical neurons; assay type: cell-based, human; settings: MCHS neurons versus WT control, in vitro
From the text: FIGS. 5A and 5B. […] (FIG. 4A) MAP2 protein expression in neurons treated with AR-42 and (n=3 in 2 independent experiments). (FIG. 4B) Representative immunoblot of MAP2 expression and GAPDH loading control. Data represented as mean±SEM. * P<0.05 by one-way ANOVA and Tukey post-hoc test.
Additionally, the neurons of patients with MEF2C haploinsufficiency syndrome (MCHS) display shorter neurites. The neuronal marker MAP2 was monitored as a biomarker for neurites in the MCHS hiPSC-derived neurons versus WT control: compromised levels of MAP2 were found, but they were corrected by treatment with AR-42 in vitro (FIGS. 6A and 6B). These types of assays correlate well with improvement in behavioral studies in this type of ASD/ID, as illustrated by the use mouse models of MCHS (S. Tu (2017)).

EC50 ([1]; Homo sapiens, concentration for half-maximal activity derived from the hill equation model, MEF2 luciferase reporter, read-out: qAC50): 0.439 µM
Structure (SMILES): CC(C)[C@H](C(=O)Nc1ccc(C(=O)NO)cc1)c1ccccc1 [AR-42]
increase in MEF2 activity in the primary screen ([1]; primary screen, 10 μM): > 3 fold
MEF2 transcriptional activity corrected with control Renilla-based (non-specific) reporter [2]: increased MEF2 transcriptional activity
aberrant hyperactivity (Ca^2+ signaling, calcium event frequency) [3]: normalizes this aberrant, excessive activity; also recorded: decreased aberrant hyperactivity
MAP2 levels (neurite biomarker) [4]: increase MAP2 levels; also recorded: corrected
